# In patent publication US7585851B2, “3′-prodrugs of 2′-deoxy-β-L-nucleosides” (priority 2000, dated 2009):
# Entries after “also recorded” stand apart in the source; their conditions may differ. Read-outs that look alike come from different tables or passages of the source.
# Experiments:
# [1] = test system: Salmonella typhimurium strains TA98, TA100, TA1535, and TA1537; test: Plate incorporation mutation assay, S. typhimurium; details: with and without rat liver S-9; up to 5000 mg/plate, 5000 μg/plate
# Method: (§1) L-dC was tested for its potential to cause mutation at the histidine operon of Salmonella typhimurium strains TA98, TA100, TA1535, and TA1537 and at the tryptophan opeton of Escherichia coli strain WP2uvrA. L-dC at concentrations of […] plus positive and negative controls were tested. […] After incubation for approximately 68 hours, L-dC and controls were evaluated for the number of revertants per plate and integrity of the background microcolony lawn.
# [2] = test system: MDCK, canine kidney epithelial cells
# HSV-1 = test: Antiviral panel: HSV-1 (HFF); assay type: cell-based
# HepG2 cells = test: Mitochondrial toxicity assay in HepG2 cells; assay type: cell-based, human
# Measles = test: Antiviral panel: Measles (CV-1); assay type: cell-based
# [3] = human
# [4] = test system: MA-104, rhesus monkey kidney epithelial cells
# HCMV = test: Antiviral panel: HCMV (HFF); assay type: cell-based
# [5] = assay type: in vivo, cynomologus monkey
# Method: The pharmacokinetics of L-dC following IV and oral administration of L-dC to cynomologus monkeys was determined. […] Following a six week washout period, the same three monkeys received an identical oral dose of L-dC. Blood samples for pharmacokinetic analysis were collected pre-dose and at 0.25, 0.5, 1, 2, 3, 6, 8 and 24 hours after dosing. Urine samples for pharmacokinetic analyses were collected via pan catch pre-dose and over the following intervals post-dose: 0-2, […], 4-8, and 8-12 hours, and then over 12-hour intervals thereafter through 336 hours post-dose. The drug was detected and the concentration determined using a reverse-phase high-performance liquid chromatography technique.
# [6] = test system: Escherichia coli strain WP2uvrA; test: Plate incorporation mutation assay, E. coli; details: with and without rat liver S-9; up to 5000 mg/plate, 5000 μg/plate
# Method: as §1
# [7] = test system: HFF, human foreskin fibroblast
# Parainfluenza type 3 = test: Antiviral panel: Parainfluenza type 3 (MA-104); assay type: cell-based
# [8] = HepG2, L-dC 10, FIAU 10, ZDV 50, ddC 1 μM
# [9] = L-dC 10 mg/kg IV, cynomologus monkey
# [10] = L-dC 10 mg/kg oral, cynomologus monkey
smiles,measurement,setting,value
"Nc1ccn([C@@H]2C[C@@H](O)[C@H](CO)O2)c(=O)n1 [L-dC, 2′-deoxy-β-L-cytidine]",mutagenicity,[1],no evidence of mutagenicity; also recorded: not mutagenic
same,CC50,[2],> 100 µM
same,EC50,HSV-1,>100 µg/mL
same,effect on mitochondrial DNA content,"HepG2 cells; HepG2, 14 days, concentrations up to 0.10 μM",no effect
same,CC50,"HepG2 cells; HepG2, after 14 days of treatment",> 2000 µM
same,"L-Lactate, % of Control",HepG2 cells; [8],101 ± 2 % of Control
same,Lipid Droplet Formation,HepG2 cells; [8],negative
same,"mtDNA, % of Control",HepG2 cells; [8],107 ± 8 % of Control
same,Mitochondrial Morphology,"HepG2 cells; HepG2, L-dC 10, FIAU 10, ZDV 50, ddC 1 μM, electron microscopy",No discernible changes; also recorded: normal
same,EC50,Measles,> 100 µM
same,plasma protein binding,[3],19.7%±5.9%
same,CC50,[4],> 100 µM
same,EC50,HCMV,>100 µg/mL
same,renal clearance as share of total L-dC clearance,[5]; IV,87%
same,"share of the dose recovered in the urine, by analyte","[5]; IV L-dC, analyte = label",94%
same,administered dose recovered in urine,"[5]; IV, within 2 hours",71%
same,CL,[5]; [9],8.83 mL/min/kg
same,CLR,[5]; [9],7.67 mL/min/kg
same,Cmax,[5]; [9],95.7 µM
same,Tmax,[5]; [9],0 h
same,Vd,[5]; [9],1.22 L/kg
same,t1/2,[5]; [9],1.59 h
same,oral bioavailability F,"[5]; L-dC 10 mg/kg oral vs IV, cynomologus monkey",16.4%
same,Cmax,[5]; [10],3.38 µM
same,Tmax,[5]; [10],2.33 h
same,terminal t1/2,[5]; [10],2.95 h
same,"share of drug excreted / recovered dose in urine, by analyte","[5]; oral L-dC, analyte = label",~69%
same,administered oral dose recovered in urine,[5]; after 72 hours,15.5%±8%
same,administered oral dose recovered in urine,[5]; within 12 hours,Approximately 8.5%
same,mutagenicity,[6],no evidence of mutagenicity; also recorded: not mutagenic
same,CC50,[7],>100 µg/mL
same,EC50,Parainfluenza type 3,> 100 µM
